From article PMC7251097, “Aspartate/asparagine-β-hydroxylase: a high-throughput mass spectrometric assay for discovery of small molecule inhibitors” (Scientific Reports, 2020)
Where a name gives a salt, the structure may show the parent alone. Read-outs that look alike come from different tables or passages of the source.

Target: T1, His6-AspH315–758 (human aspartate/asparagine-β-hydroxylase, AspH) (Homo sapiens, UniProt Q12797)
T1 construct: N-Terminally His6-tagged human AspH315–758 (His6-AspH315–758) was produced in E. coli BL21 (DE3) cells; made in house; host or cells: E. coli BL21 (DE3), pET-28a(+) vector
T1 sequence (Q12797 315-758): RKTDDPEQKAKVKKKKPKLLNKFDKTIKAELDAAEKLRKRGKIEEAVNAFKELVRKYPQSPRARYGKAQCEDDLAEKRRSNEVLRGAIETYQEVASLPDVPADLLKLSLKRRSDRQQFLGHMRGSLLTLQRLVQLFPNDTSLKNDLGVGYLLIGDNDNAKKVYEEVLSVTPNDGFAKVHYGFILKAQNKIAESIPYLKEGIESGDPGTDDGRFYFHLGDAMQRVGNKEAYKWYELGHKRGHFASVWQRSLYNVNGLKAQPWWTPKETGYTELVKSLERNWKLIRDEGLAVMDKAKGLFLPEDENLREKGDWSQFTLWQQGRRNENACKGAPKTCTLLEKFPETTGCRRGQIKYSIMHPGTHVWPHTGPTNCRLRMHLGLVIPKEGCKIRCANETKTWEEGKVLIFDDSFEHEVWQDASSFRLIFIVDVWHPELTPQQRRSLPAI
Assay: SPE-MS AspH inhibition assay (LOPAC screen at fixed 20 μM and IC50 dose-response), hydroxylation of cyclic peptide hFX-CP101–119
Format: biochemical
Details: for Plate 5 (% inhibition) / Plate 5 (% conversion): plate 5 (Pfitzer), test compounds at fixed 20 μM; for Plate 5 (% conversion): mean conversion DMSO 32.88

[1] = LOPAC Plate 4, compound at 20 uM, substrate conversion
[2] = LOPAC Plate 4, compound at 20 uM, read-out: % inhibition
[3] = LOPAC compound at 20uM, plate 3, conversion of substrate peptide
[4] = LOPAC compound at fixed 20 uM, plate 1, normalised to DMSO and 2,4-PDCA controls
[5] = LOPAC compound at fixed 20 uM, substrate conversion, plate 1

Compound: COc1ccc(C2(O)OC(=O)C(c3ccc4c(c3)OCO4)=C2Cc2cc(OC)c(OC)c(OC)c2)cc1 (centres unmarked) [PD-156707]
- % conversion [1]: 36.15%
- inhibition at 20 µM [2]: 0.95%
- Plate 5 (% inhibition): 18.88%
- Plate 5 (% conversion): 29.89%

Compound: CCN(CC)CCCCNc1ncc2cc(-c3c(Cl)cccc3Cl)c(NC(=O)NC(C)(C)C)nc2n1 [PD-161570]
- Plate 3 (% conversion) [3]: 41.21%
- Plate 5 (% inhibition): -29.14%
- Plate 5 (% conversion): 46.23%

Compound: Cc1c([N+](=O)[O-])cc2[nH]c(=O)c(=O)[nH]c2c1CN1CCCC1 [PD-161989]
- Plate 5 (% inhibition): 16.45%
- Plate 5 (% conversion): 30.72%

Compound: CCN(CC)CCOc1ccc(Nc2ncc3cc(-c4c(Cl)cccc4Cl)c(=O)n(C)c3n2)cc1.O [PD-166285 hydrate]
- % conversion: 50.97%
- % inhibition (20 µM): -42.48%

Compound: CCN(CC)CCOc1ccc(Nc2ncc3cc(-c4c(Cl)cccc4Cl)c(=O)n(C)c3n2)cc1 [PD-166285]
- Plate 5 (% inhibition): -31.63%
- Plate 5 (% conversion): 47.08%

Compound: COc1cc(OC)cc(-c2cc3cnc(N)nc3nc2NC(=O)NC(C)(C)C)c1 [PD-166866]
- % conversion [1]: 36.54%
- Plate 5 (% inhibition): -5.94%
- Plate 5 (% conversion): 38.34%

Compound: Cc1cc(Nc2ncc3cc(-c4c(Cl)cccc4Cl)c(=O)n(C)c3n2)ccc1F [PD-180970]
- Plate 1 (% inhibition) [4]: -5.67%
- Plate 1 (% conversion) [5]: 37.77%
- Plate 5 (% inhibition): 46.58%
- Plate 5 (% conversion): 20.46%

Compound: O=C(Nc1cccnc1)N1CCC(Cc2cccc(Oc3ccc(C(F)(F)F)cn3)c2)CC1 [PF 3845 hydrate]
- Plate 1 (% conversion): 45.36%
- Plate 1 (% inhibition): -28.26%

Compound: O=C(Nc1cccnc1)N1CCC(Cc2cccc(Oc3ccc(C(F)(F)F)cn3)c2)CC1 [PF-3845]
- Plate 5 (% inhibition): -5.26%
- Plate 5 (% conversion): 38.10%

Compound: CN(c1ccccc1CNc1nc(Nc2ccc3c(c2)CC(=O)N3)ncc1C(F)(F)F)S(C)(=O)=O.O [PF-431396 hydrate]
- Plate 1 (% inhibition) [4]: -15.66%
- Plate 1 (% conversion) [5]: 41.13%

Compound: CN(c1ccccc1CNc1nc(Nc2ccc3c(c2)CC(=O)N3)ncc1C(F)(F)F)S(C)(=O)=O [PF-431396]
- Plate 5 (% inhibition): 35.16%
- Plate 5 (% conversion): 24.35%

Compound: Cn1cc(-c2[nH]c3cc(NC(=O)[C@H](N)C4CCCCC4)cc4c3c2C=NNC4=O)cn1 [PF-477736]
- Plate 5 (% inhibition): -92.31%
- Plate 5 (% conversion): 67.73%

Compound: CS(=O)(=O)c1cccc(CNc2nc(Nc3ccc4c(c3)CCC(=O)N4)ncc2C(F)(F)F)c1 [PF-573228]
- Plate 5 (% inhibition): 7.79%
- Plate 5 (% conversion): 33.66%

Compound: C[C@@H]1CCN(C(=O)N2CCCC2)C[C@@H]1N(C)c1ncnc2[nH]ccc12 [PF-956980]
- Plate 5 (% inhibition): 16.28%
- Plate 5 (% conversion): 30.77%

Compound: N#Cc1ccc([C@H]2CCCC[C@H]2O)cc1C(F)(F)F [PF-998425]
- Plate 5 (% conversion): 24.94%

Compound: CCc1cncnc1N1CCN(Cc2nc3ccc(C(F)(F)F)cc3[nH]2)CC1 [PF-4708671]
- % conversion [1]: 41.30%
- Plate 5 (% inhibition): 2.08%
- Plate 5 (% conversion): 35.61%

Compound: Cl.O=C1NCCc2[nH]c(-c3ccncc3)cc21 [PHA 767491 hydrochloride]
- Plate 1 (% inhibition) [4]: -17.71%
- Plate 1 (% conversion) [5]: 41.82%

Compound: O=C1NCCc2[nH]c(-c3ccncc3)cc21 [PHA 767491]
- Plate 5 (% inhibition): 26.12%
- Plate 5 (% conversion): 27.42%

Compound: O=C(N[C@H]1CN2CCC1CC2)c1cc2ccoc2cn1 [PHA-543613]
- Plate 3 (% conversion) [3]: 37.15%
- Plate 5 (% inhibition): 12.80%
- Plate 5 (% conversion): 31.96%

Compound: Cc1[nH]c(/C=C2\C(=O)Nc3ccc(S(=O)(=O)Cc4c(Cl)cccc4Cl)cc32)c(C)c1C(=O)N1CCC[C@@H]1CN1CCCC1 [PHA-665752]
- Plate 5 (% inhibition): -100.36%
- Plate 5 (% conversion): 70.47%

Compound: CCC(C)N(C)C(=O)c1cc2ccccc2c(-c2ccccc2Cl)n1 (centres unmarked) [PK 11195]
- Plate 1 (% inhibition) [4]: -10.48%
- Plate 1 (% conversion) [5]: 39.39%

Compound: Nc1nc2c(ncn2CCOCP(=O)(O)O)c(=O)[nH]1 [PMEG hydrate]
- Plate 3 (% conversion) [3]: 30.37%

Compound: Cc1nc(N=Nc2ccc(S(=O)(=O)O)cc2S(=O)(=O)O)c(COP(=O)(O)O)c(C=O)c1O [PPADS]
- % inhibition (LOPAC Plate 4, compound at 20 uM): 84.93%
- % conversion [1]: 7.48%

Compound: O=C(OCCN1CCOCC1)C1(c2ccccc2)CCCCC1 [PRE-084]
- Plate 3 (% conversion) [3]: 38.46%

Compound: CC(=O)c1cccc(N[C@H]2[C@H](N)[C@@](NC(=O)N(C)C)([C@H](C)O)[C@@](C)(O)[C@@]2(O)COC(=O)c2c(C)cccc2O)c1 [Pactamycin]
- Plate 5 (% inhibition): 21.27%
- Plate 5 (% conversion): 29.07%

Compound: CC(=O)O[C@H]1C[C@@H]2CC[C@@H]3[C@H](CC[C@@]4(C)[C@H]3C[C@H]([N+]3(C)CCCCC3)[C@@H]4OC(C)=O)[C@@]2(C)C[C@@H]1[N+]1(C)CCCCC1 [Pancuronium bromide]
- Plate 3 (% conversion): 37.93%

Compound: C#CCN(C)Cc1ccccc1 [Pargyline hydrochloride]
- % conversion [1]: 31.34%

Compound: NC[C@@H]1O[C@H](O[C@H]2[C@@H](O)[C@H](O[C@@H]3[C@@H](O)[C@H](N)C[C@H](N)[C@H]3O[C@H]3O[C@H](CO)[C@@H](O)[C@H](O)[C@H]3N)O[C@@H]2CO)[C@H](N)[C@@H](O)[C@@H]1O [Paromomycin sulfate]
- % conversion [1]: 37.25%
- inhibition at 20 µM [2]: -2.28%

Compound: N=C(N)c1ccc(OCCCCCOc2ccc(C(=N)N)cc2)cc1 [Pentamidine isethionate]
- Plate 3 (% conversion) [3]: 37.75%

Compound: C[N+]1(CCCCC[N+]2(C)CCCC2)CCCC1.O=C([O-])C(O)C(O)C(=O)O.O=C([O-])C(O)C(O)C(=O)O [Pentolinium di[L(+)-tartrate]]
- Plate 3 (% conversion) [3]: 9.60%

Compound: CCCN1C[C@H](CSC)C[C@@H]2c3cccc4[nH]cc(c34)C[C@H]21 [Pergolide methanesulfonate]
- % conversion [1]: 40.48%
- inhibition at 20 µM [2]: -11.8%

Compound: OCCN1CCN(CCCN2c3ccccc3Sc3ccc(Cl)cc32)CC1 [Perphenazine]
- Plate 3 (% conversion) [3]: 48.99%

Compound: NCC(CP(=O)(O)O)c1ccc(Cl)cc1 (centres unmarked) [Phaclofen]
- % conversion: 34.58%
- % inhibition (20 µM): 5.54%

Compound: NC(=Nc1ccccc1)NC(=O)c1nc(Cl)c(N)nc1N [Phenamil methanesulfonate]
- % conversion [1]: 39.99%
- inhibition at 20 µM [2]: -10.3%

Compound: NNCCc1ccccc1 [Phenelzine sulfate]
- inhibition at 20 µM: -1.74%

Compound: CN(C)CCC(c1ccccc1)c1ccccn1 (centres unmarked) [Pheniramine maleate]
- % conversion [1]: 37.25%
- inhibition at 20 µM [2]: -2.28%
